From ChEMBL document CHEMBL1201862, “PubChem BioAssay data set” (2004)
Activity calls are given as the source filed them. Rule as the data show it: actives have a measured IC50 and inactives only a lower limit.

Molecular target: Envelope glycoprotein gp160 (Human immunodeficiency virus 1, UniProt Q6QLK5)
Experiment: inhibitors of HIV fusion peptide binding, primary screen, biochemical, uHTS, fluorescence dequenching (AID 1986)

Envelope glycoprotein gp160, sequence (Q6QLK5 whole entry, the tested form may be a part): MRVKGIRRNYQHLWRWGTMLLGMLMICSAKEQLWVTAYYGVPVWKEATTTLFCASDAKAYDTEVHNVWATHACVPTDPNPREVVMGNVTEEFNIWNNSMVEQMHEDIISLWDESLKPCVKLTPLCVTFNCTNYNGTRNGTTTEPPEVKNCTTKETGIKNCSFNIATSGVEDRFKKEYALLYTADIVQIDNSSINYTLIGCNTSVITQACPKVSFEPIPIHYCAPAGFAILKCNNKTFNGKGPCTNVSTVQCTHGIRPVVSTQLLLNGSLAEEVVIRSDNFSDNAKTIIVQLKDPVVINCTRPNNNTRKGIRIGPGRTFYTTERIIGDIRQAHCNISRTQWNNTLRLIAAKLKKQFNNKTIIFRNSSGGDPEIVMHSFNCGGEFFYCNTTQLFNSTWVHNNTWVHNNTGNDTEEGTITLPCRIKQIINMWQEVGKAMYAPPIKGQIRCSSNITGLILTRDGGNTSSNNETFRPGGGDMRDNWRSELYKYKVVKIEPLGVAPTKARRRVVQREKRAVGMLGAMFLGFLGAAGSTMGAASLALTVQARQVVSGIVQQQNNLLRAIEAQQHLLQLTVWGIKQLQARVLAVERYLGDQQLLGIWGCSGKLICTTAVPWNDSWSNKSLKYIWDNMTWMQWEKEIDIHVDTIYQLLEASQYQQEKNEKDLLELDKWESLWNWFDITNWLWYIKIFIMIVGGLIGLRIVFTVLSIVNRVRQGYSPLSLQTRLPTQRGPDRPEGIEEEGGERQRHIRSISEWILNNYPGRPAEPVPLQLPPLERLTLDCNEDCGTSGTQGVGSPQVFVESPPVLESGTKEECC

## CCc1nnc(NS(=O)(=O)c2ccc(NC(=S)NC(=O)/C=C/c3cccs3)cc2)s1
  IC50: 22.6 µM (active)
